Source: the supplement of paper PMC11061612

Assays:
Test in all cases: Bliss excess, mean over the matrix (fraction); higher = more synergy
42-MG-BA (Glioblastoma) = tested on: 42-MG-BA (Glioblastoma)
How it was run: (§1)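 After 24 hours at 37°C and 5% CO2 in 1536-well plates, cells in DMEM/F12 or RPMI plus 10% FBS received two-drug dose matrices for 72 hours. Viability came from CellTiter-Glo 2.0 luminescence and was scaled as inhibition, anchored at 0 by vehicle wells and at 1 by blank wells. Combination Emax is taken as the second-highest inhibition in the matrix, and Bliss excess as the observed combination effect less EA + EB − EA·EB, with EA and EB the single-agent effects.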

[1] = tested on: CAL-148 (Breast Carcinoma)
How it was run: as §1

ES4 (Ewing's Sarcoma) = tested on: ES4 (Ewing's Sarcoma)
How it was run: as §1

[2] = tested on: HCC1806 (Breast Carcinoma)
How it was run: as §1

[3] = tested on: HuP-T4 (Pancreatic Carcinoma)
How it was run: as §1

[4] = tested on: LS-180 (Colorectal Carcinoma)
How it was run: as §1

[5] = tested on: MDA-MB-361 (Breast Carcinoma)
How it was run: as §1

[6] = tested on: NCI-H2085 (Non-Small Cell Lung Carcinoma)
How it was run: as §1

[7] = tested on: NCI-H82 (Small Cell Lung Carcinoma)
How it was run: as §1

[8] = tested on: SK-ES-1 (Ewing's Sarcoma)
How it was run: as §1

[9] = tested on: TE-15 (Esophageal Squamous Cell Carcinoma)
How it was run: as §1

[10] = tested on: UM-UC-3 (Bladder Carcinoma)
How it was run: as §1

Cc1c2c(nn1C)CSCc1cc(n(C)n1)CSc1cc(c3ccccc3c1)OCCCc1c(C(=O)O)n(C)c3c-2c(Cl)ccc13 [AZD5991] + Cc1cc2ncnn2cc1Nc1ncc2c(n1)n(C1CCOCC1)c(=O)n2C [AZD7648] (first compound max 1 µM, 7x7, partner max 10 µM)
Bliss excess (42-MG-BA (Glioblastoma)): -0.0299
Bliss excess [1]: -0.0121
Bliss excess (ES4 (Ewing's Sarcoma)): -0.0593
Bliss excess [2]: -0.0203
Bliss excess [3]: -0.0562
Bliss excess [4]: -0.0213
Bliss excess [5]: -0.0344
Bliss excess [6]: -0.0493
Bliss excess [7]: 0.0174
Bliss excess [8]: 0.0001
Bliss excess [9]: -0.0325
Bliss excess [10]: 0.0053

Cc1c2c(nn1C)CSCc1cc(n(C)n1)CSc1cc(c3ccccc3c1)OCCCc1c(C(=O)O)n(C)c3c-2c(Cl)ccc13 [AZD5991] + Cn1cnc2c(F)c(Nc3ccc(Br)cc3Cl)c(C(=O)NOCCO)cc21 [Selumetinib] (first compound max 1 µM, 7x7, partner max 3 µM)
Bliss excess (42-MG-BA (Glioblastoma)): -0.03
Bliss excess [1]: 0.0184
Bliss excess (ES4 (Ewing's Sarcoma)): -0.0173
Bliss excess [2]: 0.0254
Bliss excess [3]: 0.113
Bliss excess [4]: 0.0454
Bliss excess [5]: -0.0168
Bliss excess [6]: -0.0344
Bliss excess [7]: -0.0406
Bliss excess [8]: -0.0186
Bliss excess [9]: 0.0114
Bliss excess [10]: 0.0332

C[C@@H]1COCCN1c1cc(C2([S@](C)(=N)=O)CC2)nc(-c2ccnc3[nH]ccc23)n1 [AZD6738] + O=C(c1cc(Cc2n[nH]c(=O)c3ccccc23)ccc1F)N1CCN(C(=O)C2CC2)CC1 [Olaparib] (first compound max 10 µM, 7x7, partner max 10 µM)
Bliss excess (42-MG-BA (Glioblastoma)): 0.0142
Bliss excess [1]: 0.0123
Bliss excess (ES4 (Ewing's Sarcoma)): 0.0608
Bliss excess [2]: 0.0103
Bliss excess [3]: -0.0037
Bliss excess [4]: 0.0208
Bliss excess [5]: -0.0376
Bliss excess [6]: -0.0571
Bliss excess [7]: -0.0194
Bliss excess [8]: 0.0804
Bliss excess [9]: -0.0465
Bliss excess [10]: 0.0829

Cc1cc2ncnn2cc1Nc1ncc2c(n1)n(C1CCOCC1)c(=O)n2C [AZD7648] + C=CCn1c(=O)c2cnc(Nc3ccc(N4CCN(C)CC4)cc3)nc2n1-c1cccc(C(C)(C)O)n1 [AZD1775] (first compound max 10 µM, partner max 1 µM)
Bliss excess (42-MG-BA (Glioblastoma)): -0.052
Bliss excess [1]: 0.0051
Bliss excess (ES4 (Ewing's Sarcoma)): 0.0337
Bliss excess [2]: 0.0373
Bliss excess [3]: 0.0417
Bliss excess [4]: -0.0272
Bliss excess [5]: -0.0854
Bliss excess [6]: 0.0418
Bliss excess [7]: -0.0429
Bliss excess [8]: 0.0322
Bliss excess [9]: 0.0223
Bliss excess [10]: 0.0279

Cc1cc2ncnn2cc1Nc1ncc2c(n1)n(C1CCOCC1)c(=O)n2C [AZD7648] + CCN(CCO)CCCOc1ccc2c(Nc3cc(CC(=O)Nc4cccc(F)c4)[nH]n3)ncnc2c1 [AZD2811] (first compound max 10 µM, 7x7, partner max 1 µM)
Bliss excess (42-MG-BA (Glioblastoma)): 0.0312
Bliss excess [1]: -0.0213
Bliss excess (ES4 (Ewing's Sarcoma)): 0.0076
Bliss excess [2]: 0.071
Bliss excess [3]: 0.0254
Bliss excess [4]: 0.0165
Bliss excess [5]: -0.0082
Bliss excess [6]: 0.0409
Bliss excess [7]: 0.0981
Bliss excess [8]: 0.0065
Bliss excess [9]: -0.0213
Bliss excess [10]: 0.001

Cc1cc2ncnn2cc1Nc1ncc2c(n1)n(C1CCOCC1)c(=O)n2C [AZD7648] + CN(C)CCCOc1ccc(-c2ccc3ncc4c(c3c2)n(C2CCOCC2)c(=O)n4C)cn1 [AZD0156] (first compound max 10 µM, 7x7, partner max 1 µM)
Bliss excess (42-MG-BA (Glioblastoma)): -0.0313
Bliss excess [1]: 0.0102
Bliss excess (ES4 (Ewing's Sarcoma)): -0.0163
Bliss excess [2]: 0.0654
Bliss excess [3]: 0.0393
Bliss excess [4]: -0.0443
Bliss excess [5]: -0.0656
Bliss excess [6]: -0.0343
Bliss excess [7]: 0.0094
Bliss excess [8]: 0.0628
Bliss excess [9]: -0.0383
Bliss excess [10]: 0.014

Cc1cc2ncnn2cc1Nc1ncc2c(n1)n(C1CCOCC1)c(=O)n2C [AZD7648] + C[C@@H]1COCCN1C2=NC(=NC(=C2)C3(CC3)[S@](=N)(=O)C)C4=C5C=CNC5=NC=C4 [AZD6738] (first compound max 10 µM, 7x7, partner max 10 µM)
Bliss excess (42-MG-BA (Glioblastoma)): -0.0581
Bliss excess [1]: 0.0532
Bliss excess (ES4 (Ewing's Sarcoma)): 0.0062
Bliss excess [2]: 0.014
Bliss excess [3]: 0.0353
Bliss excess [4]: 0.0003
Bliss excess [5]: -0.0263
Bliss excess [6]: 0.0007
Bliss excess [7]: -0.0596
Bliss excess [8]: 0.0046
Bliss excess [9]: -0.0193
Bliss excess [10]: 0.0223

Cc1cc2ncnn2cc1Nc1ncc2c(n1)n(C1CCOCC1)c(=O)n2C [AZD7648] + O=C(c1cc(Cc2n[nH]c(=O)c3ccccc23)ccc1F)N1CCN(C(=O)C2CC2)CC1 [Olaparib] (first compound max 10 µM, 7x7, partner max 10 µM)
Bliss excess (42-MG-BA (Glioblastoma)): 0.0303
Bliss excess [1]: -0.0545
Bliss excess (ES4 (Ewing's Sarcoma)): 0.0132
Bliss excess [2]: -0.0343
Bliss excess [3]: -0.0432
Bliss excess [4]: -0.0896
Bliss excess [5]: -0.0204
Bliss excess [6]: -0.0444
Bliss excess [7]: -0.0382
Bliss excess [8]: 0.0254
Bliss excess [9]: -0.0399
Bliss excess [10]: -0.0297

NC1(C(=O)N[C@@H](CCO)c2ccc(Cl)cc2)CCN(c2ncnc3[nH]ccc23)CC1 [Capivasertib] + CC(=O)c1c(C)c2cnc(Nc3ccc(N4CCNCC4)cn3)nc2n(C2CCCC2)c1=O [Palbociclib] (first compound max 10 µM, 7x7, partner max 10 µM)
Bliss excess (42-MG-BA (Glioblastoma)): -0.0633
Bliss excess [1]: -0.0215
Bliss excess (ES4 (Ewing's Sarcoma)): 0.074
Bliss excess [2]: 0.0075
Bliss excess [3]: -0.0118
Bliss excess [4]: 0.0189
Bliss excess [5]: -0.0161
Bliss excess [6]: -0.0561
Bliss excess [7]: -0.0229
Bliss excess [8]: 0.0865
Bliss excess [9]: 0.0281
Bliss excess [10]: 0.0504
